The values below come from PubChem BioAssay AID1259407 (Chemical Carcinogenesis Research Information System (CCRIS), 2018).

For this series, the system named is CCRIS mutagenicity, Ames/micronucleus/aberration tests. Description: CCRIS mutagenicity studies.
The mark [1] stands for this setting: Test System: AMES SALMONELLA TYPHIMURIUM, Strain/Indicator: TA98, Metabolic Activation: NONE, Method: STANDARD PLATE.
The mark [2] stands for this setting: Test System: AMES SALMONELLA TYPHIMURIUM, Strain/Indicator: TA100, Metabolic Activation: NONE, Method: STANDARD PLATE.

Activity calls are given as the source filed them. No rule for the calls is given here.

As to `CCc1cccc(CC)c1N(COC)C(=O)CCl`, the mutagenic call is, setting by setting: (End Point: IN VITRO CHROMOSOMAL ABERRATIONS, Test System: PERIPHERAL BLOOD HUMAN LYMPHOCYTES, Metabolic Activation: NONE) “inactive; negative; chromosomal aberrations not increased but chromatid-type aberrations i”; (End Point: IN VITRO MICRONUCLEUS, Test System: HUMAN PERIPHERAL BLOOD LYMPHOCYTES, Metabolic Activation: NONE) “active; positive; result at highest dose; variation among donors”; (End Point: IN VITRO MICRONUCLEUS, Test System: HUMAN PERIPHERAL BLOOD LYMPHOCYTES, Metabolic Activation: S-9) “active; positive; result at highest dose; variation among donors”; (End Point: IN VITRO MICRONUCLEUS, Test System: PERIPHERAL BLOOD HUMAN LYMPHOCYTES, Metabolic Activation: NONE) “active; positive; variation among donors”; (Test System: AMES SALMONELLA TYPHIMURIUM, Strain/Indicator: TA98, Metabolic Activation: NONE, Method: PREINCUBATION) “inactive; negative”; under setting [1], “inactive; negative”. Also, the mutagenic call runs as follows: (Test System: AMES SALMONELLA TYPHIMURIUM, Strain/Indicator: TA98, Metabolic Activation: RAT, LIVER, MICROSOMES, PHENOBARBITAL, Method: PREINCUBATION) “inactive; negative”; (Test System: AMES SALMONELLA TYPHIMURIUM, Strain/Indicator: TA98, Metabolic Activation: S-9, Method: STANDARD PLATE) “inactive; negative”; (Test System: AMES SALMONELLA TYPHIMURIUM, Strain/Indicator: TA100, Metabolic Activation: NONE, Method: PREINCUBATION) “inactive; negative”; under setting [2], “inactive; negative”; (Test System: AMES SALMONELLA TYPHIMURIUM, Strain/Indicator: TA100, Metabolic Activation: RAT OLFACTORY S-9, Method: PREINCUBATION) “active; positive”; (Test System: AMES SALMONELLA TYPHIMURIUM, Strain/Indicator: TA100, Metabolic Activation: RAT RESPIRATORY S-9, Method: PREINCUBATION) “inactive; negative”. The mutagenic call (Test System: AMES SALMONELLA TYPHIMURIUM, Strain/Indicator: TA100, Metabolic Activation: RAT, LIVER, MICROSOMES, PHENOBARBITAL, Method: PREINCUBATION) was “inactive; negative”; the mutagenic call (Test System: AMES SALMONELLA TYPHIMURIUM, Strain/Indicator: TA100, Metabolic Activation: RAT, LIVER, S-9, Method: PREINCUBATION) was “active; positive”; the mutagenic call (Test System: AMES SALMONELLA TYPHIMURIUM, Strain/Indicator: TA100, Metabolic Activation: S-9, Method: STANDARD PLATE) was “inactive; negative”; the mutagenic call (Test System: AMES SALMONELLA TYPHIMURIUM, Strain/Indicator: TA1535, Metabolic Activation: NONE, Method: STANDARD PLATE) was “inactive; negative”; the mutagenic call (Test System: AMES SALMONELLA TYPHIMURIUM, Strain/Indicator: TA1535, Metabolic Activation: S-9, Method: STANDARD PLATE) is “inactive; negative”; the mutagenic call (Test System: AMES SALMONELLA TYPHIMURIUM, Strain/Indicator: TA1537, Metabolic Activation: NONE, Method: STANDARD PLATE) was “inactive; negative”. Moreover, the mutagenic call runs as follows: (Test System: AMES SALMONELLA TYPHIMURIUM, Strain/Indicator: TA1537, Metabolic Activation: S-9, Method: STANDARD PLATE) “inactive; negative”; (Test System: AMES SALMONELLA TYPHIMURIUM, Strain/Indicator: TA1538, Metabolic Activation: NONE, Method: STANDARD PLATE) “active; positive”; (Test System: AMES SALMONELLA TYPHIMURIUM, Strain/Indicator: TA1538, Metabolic Activation: S-9, Method: STANDARD PLATE) “inactive; negative”; (Test System: MOUSE LYMPHOMA, Strain/Indicator: 3.7.2C (TK+/TK-), Metabolic Activation: RAT OLFACTORY S-9, Method: SUSPENSION/PLATE) “active; positive”.

`O=[N+]([O-])c1cccc2c1ccc1ccccc12`: the mutagenic call is, setting by setting: (Test System: AMES SALMONELLA TYPHIMURIUM, Strain/Indicator: TA98(1,8-DNP6), Metabolic Activation: NONE, Method: STANDARD PLATE) “active; positive”; (Test System: AMES SALMONELLA TYPHIMURIUM, Strain/Indicator: TA98(NR), Metabolic Activation: NONE, Method: STANDARD PLATE) “active; positive”; under setting [1], “active; positive”; under setting [2], “active; positive”; (Test System: AMES SALMONELLA TYPHIMURIUM, Strain/Indicator: YG1021, Metabolic Activation: NONE, Method: STANDARD PLATE) “active; positive”; (Test System: AMES SALMONELLA TYPHIMURIUM, Strain/Indicator: YG1024, Metabolic Activation: NONE, Method: STANDARD PLATE) “active; positive”. For the same compound, the mutagenic call (Test System: AMES SALMONELLA TYPHIMURIUM, Strain/Indicator: YG1026, Metabolic Activation: NONE, Method: STANDARD PLATE) is “active; positive” and the mutagenic call (Test System: AMES SALMONELLA TYPHIMURIUM, Strain/Indicator: YG1029, Metabolic Activation: NONE, Method: STANDARD PLATE) is “active; positive”.
